Legend:
Green foxtail = assay: Test D green foxtail; format: in vivo; settings: Preemergence, 0 to 100 scale
How it was run: (§1)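 Greenhouse pots, seeds in sandy loam; compounds formulated in non-phytotoxic solvent with surfactant; preemergence treatments went on the soil surface within one day of planting. Injury rated visually 14 to 21 days after application on a 0 (none) to 100 (complete control) scale.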

surinam grass = assay: Test D surinam grass; format: in vivo, Brachiaria decumbens; settings: Preemergence, 0 to 100 scale
Excerpt: (§2) Seeds, tubers, or plant parts of Alexandergrass (Brachiaria plantaginea), bermuda-grass (Cynodon dactylon), common pursiane (Portulaca oleracea), common ragweed (Ambrosia elatior), common groundsel (Senecio vulgaris), dallisgrass (Paspalum dilatatum), goosegrass (Eleusine indica), guineagrass (Panicum maximum), itchgrass (Rottboellia exaltata), Johnson grass (Sorghum halepense), large crabgrass (Digitaria sanguinalis), pitted morningglory (Ipomoea lacunosa), purple nutsedge (Cyperus rotundus), sandbur (Cenchrus echinatus), sourgrass (Trichachne insularis), Spanishneedles (Bidens bipinnata), surinam grass (Brachiaria decumbens) and tall mallow (Malva sylvestris) were planted into greenhouse pots of flats containing greenhouse planting medium. Plant species were grown in separate pots or individual compartments. Preemergence applications were made within one day of planting the seed or plant part.
(§3) Test chemicals were formulated in a non-phytotoxic solvent mixture which included a surfactant and applied preemergence to the surface of the pot containing seeds in a sandy loam soil. Untreated control pots and treated pots were placed in the greenhouse for growth and visually evaluated for injury 14 to 21 days after herbicide application. Plant response ratings, summarized in Table C, are based on a 0 to 100 scale where 0 is no injury and 100 is complete control. A dash (−) response means no test result.

pitted morningglory = assay: Test D pitted morningglory; format: in vivo, Ipomoea lacunosa; settings: Preemergence, 0 to 100 scale
Excerpt: as §2
Test chemicals were formulated in a non-phytotoxic solvent mixture which included a surfactant and applied preemergence to the surface of the pot containing seeds in a sandy loam soil. Untreated control pots and treated pots were placed in the greenhouse for growth and visually evaluated for injury 14 to 21 days after herbicide application. […] A dash (−) response means no test result.

common pursiane = assay: Test D common purslane; format: in vivo, Portulaca oleracea
Excerpt: as §2, §3

guineagrass = assay: Test D guineagrass; format: in vivo, Panicum maximum; settings: Preemergence, 0 to 100 scale
How it was run: as §1

sandbur = assay: Test D sandbur; format: in vivo, Cenchrus echinatus; settings: Preemergence, 0 to 100 scale
How it was run: as §1

goosegrass = assay: Test D goosegrass; format: in vivo, Eleusine indica; settings: Preemergence, 0 to 100 scale
How it was run: as §1

common groundsel = assay: Test D common groundsel; format: in vivo, Senecio vulgaris; settings: Preemergence, 0 to 100 scale
How it was run: as §1

Alexandergrass = assay: Test D Alexandergrass; format: in vivo, Brachiaria plantaginea; settings: Preemergence, 0 to 100 scale
How it was run: as §1

Johnson grass = assay: Test D Johnson grass; format: in vivo, Sorghum halepense; settings: Preemergence, 0 to 100 scale
Excerpt: as §2, §3

itchgrass = assay: Test D itchgrass; format: in vivo, Rottboellia exaltata; settings: Preemergence, 0 to 100 scale
How it was run: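 Scoring used a 0–100 visual injury scale, with 0 meaning no effect and 100 complete control, assessed 14–21 days after application alongside untreated pots. Preemergence treatments went onto sandy loam surfaces of separately potted seeds within a day of sowing.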

bermuda-grass = assay: Test D bermudagrass; format: in vivo, Cynodon dactylon; settings: Preemergence, 0 to 100 scale
Excerpt: as §2, §3

tall mallow = assay: Test D tall mallow; format: in vivo, Malva sylvestris; settings: Preemergence, 0 to 100 scale
Excerpt: as §2, §3

dallisgrass = assay: Test D dallisgrass; format: in vivo, Paspalum dilatatum; settings: Preemergence, 0 to 100 scale
How it was run: as §1

Spanishneedles = assay: Test D Spanishneedles; format: in vivo, Bidens bipinnata; settings: Preemergence, 0 to 100 scale
How it was run: as §1

purple nutsedge = assay: Test D purple nutsedge; format: in vivo, Cyperus rotundus; settings: Preemergence, 0 to 100 scale
How it was run: as §1

common ragweed = assay: Test C postemergence common ragweed; format: in vivo, Ambrosia elatior; settings: 0 to 100 scale, 0 no effect, 100 complete control
Experimental: Compounds evaluated in this test were formulated in a non-phytotoxic solvent mixture which included a surfactant and applied to plants that were grown for various periods of time before treatment (postemergence application). A mixture of sandy loam soil and greenhouse potting mix in a 60:40 ratio was used for the postemergence test.
Plantings of these crops and weed species were adjusted to produce plants of appropriate size for the postemergence test. All plant species were grown using normal greenhouse practices. Crop and weed species include arrowleaf sida (Sida rhombifolia), barnyardgrass (Echinochloa crus-galli), cocklebur (Xanthium strumarium), common ragweed (Ambrosia elatior), corn (Zea mays), cotton (Gossypium hirsutum), eastern black nightshade (Solanum ptycanthum), fall panicum (Panicum dichotomiflorum), field bindweed (Convolvulus arvensis), giant foxtail (Setaria faberii), hairy beggarticks (Bidens pilosa), ivyleaf morningglory (Ipomoea hederacea), johnsongrass (Sorghum halepense), ladysthumb smartweed (Polygonum persicaria), lambsquarters (Chenopodium album), large crabgrass (Digitaria sanguinalis), purple nutsedge (Cyperus rotundus), redroot pigweed (Amaranthus retroflexus), soybean (Glycine max), surinam grass (Brachiaria decumbens), velvetleaf (Abutilon theophrasti) and wild poinsettia (Euphorbia heterophylla).
Treated plants and untreated controls were maintained in a greenhouse for approximately 14, to 21 days, after which all treated plants were compared to untreated controls and visually evaluated. Plant response ratings, summarized in Table C, were based upon a 0 to 100 scale where 0 was no effect and 100 was complete control. A dash response (−) means no test result.

[1] = Rate 32 g/ha, 0 no injury, 100 complete control
[2] = Rate 64 g/ha, 0 no injury, 100 complete control
[3] = Rate 125 g/ha, 0 no injury, 100 complete control
[4] = Rate 125 g/ha, Preemergence; 0 to 100 scale, 0 no injury, 100 complete control
[5] = Rate 500 g/ha, Preemergence; 0 to 100 scale
[6] = Rate 500 g/ha; Preemergence; 0 to 100 scale

`CCc1ccccc1-n1c(=O)on(C(=O)N(c2ccc(F)cc2)C(C)C)c1=O` [Compound 34] was tested, and the “Plant response rating, Green foxtail” value (Green foxtail; [1]) was 0, the “Plant response rating Surinam grass” value (surinam grass; [1]) was 0 and the “Surinam grass plant response rating” value (surinam grass; [2]) was 0. For the same compound, the “Surinam grass plant response rating” value (surinam grass; [3]) was 0, the “Plant response rating Surinam grass” value (surinam grass; Rate 250 g/ha) was 20 and the “Plant response rating, P. morninglory” value (pitted morningglory; [1]) was 0. The “Plant response rating, P. morninglory” value (pitted morningglory; [2]) was 0, the “Plant response rating, P. morninglory” value (pitted morningglory; [3]) was 0 and the “Plant response rating, P. morninglory” value (pitted morningglory; Rate 250 g/ha) was 0. The “Plant response rating, C. purslane” value (common pursiane; Rate 32 g/ha; Preemergence; 0 to 100 scale, 0 no injury, 100 complete control) was 0, the “Plant response rating, C. purslane” value (common pursiane; [4]) was 0 and the “Plant response rating, C. purslane” value (common pursiane; Rate 250 g/ha; Preemergence; 0 to 100 scale) was 0. For the same compound, the “Plant response rating, Guineagrass” value (guineagrass; [1]) was 30, the “Plant response rating, Guineagrass” value (guineagrass; [2]) was 80 and the “Plant response rating, Guineagrass” value (guineagrass; [3]) was 85. The “Plant response rating, Guineagrass” value (guineagrass; Rate 250 g/ha) was 98, the “Plant response rating, Sandbur” value (sandbur; [1]) was 0 and the “Sandbur plant response rating” value (sandbur; [2]) was 0. For the same compound, the “Sandbur plant response rating” value (sandbur; [3]) was 30, the “Plant response rating, Sandbur” value (sandbur; Rate 250 g/ha) was 40 and the “Plant response rating, Goosegrass” value (goosegrass; [1]) was 0. The “Plant response rating, Goosegrass” value (goosegrass; [2]) was 75, the “Plant response rating, Goosegrass” value (goosegrass; [3]) was 85 and the “Plant response rating, Goosegrass” value (goosegrass; Rate 250 g/ha) was 98. For the same compound, the “Plant response rating, Com. groundsel” value (common groundsel; [1]) was 0, the “Plant response rating, Com. groundsel” value (common groundsel; [2]) was 0 and the “Plant response rating, Com. groundsel” value (common groundsel; [3]) was 0. For the same compound, the “Plant response rating, Com. groundsel” value (common groundsel; Rate 250 g/ha) was 0, the “Plant response rating, Alexandergrass” value (Alexandergrass; [1]) was 0 and the “Plant response rating, Alexandergrass” value (Alexandergrass; [2]) was 20. The “Plant response rating, Alexandergrass” value (Alexandergrass; [3]) was 30, the “Plant response rating, Alexandergrass” value (Alexandergrass; Rate 250 g/ha) was 60 and the “Plant response rating Johnsongrass” value (Johnson grass; [1]) was 0. The “Plant response rating Johnsongrass” value (Johnson grass; [2]) was 0, the “Plant response rating Johnsongrass” value (Johnson grass; [3]) was 20 and the “Plant response rating Johnsongrass” value (Johnson grass; Rate 250 g/ha) was 30. For the same compound, the “Plant response rating, Itchgrass” value (itchgrass; [1]) was 0, the “Plant response rating, Itchgrass” value (itchgrass; [2]) was 0 and the “Plant response rating, Itchgrass” value (itchgrass; [3]) was 0. For the same compound, the “Plant response rating, Itchgrass” value (itchgrass; Rate 250 g/ha) was 20, the “Plant response rating, Bermudagrass” value (bermuda-grass; [1]) was 85 and the “Plant response rating, Bermudagrass” value (bermuda-grass; [2]) was 98. The “Plant response rating, Bermudagrass” value (bermuda-grass; [3]) was 100, the “Plant response rating, Bermudagrass” value (bermuda-grass; Rate 250 g/ha) was 100 and the “Plant response rating, Tall Mallow” value (tall mallow; [1]) was 0. For the same compound, the “Tall Mallow plant response rating” value (tall mallow; [2]) was 0, the “Tall Mallow plant response rating” value (tall mallow; [3]) was 0 and the “Plant response rating, Tall Mallow” value (tall mallow; Rate 250 g/ha) was 0. For the same compound, the “Plant response rating, Dallisgrass” value (dallisgrass; [1]) was 0, the “Plant response rating, Dallisgrass” value (dallisgrass; [2]) was 80 and the “Plant response rating, Dallisgrass” value (dallisgrass; [3]) was 98. For the same compound, the “Plant response rating, Dallisgrass” value (dallisgrass; Rate 250 g/ha) was 100, the “Plant response rating, Spanishneedles” value (Spanishneedles; [1]) was 0 and the “Spanishneedles plant response rating” value (Spanishneedles; [2]) was 0. For the same compound, the “Spanishneedles plant response rating” value (Spanishneedles; [3]) was 0, the “Plant response rating, Purple nutsedge” value (purple nutsedge; [1]) was 0 and the “Purple nutsedge plant response rating” value (purple nutsedge; [2]) was 0. The “Purple nutsedge plant response rating” value (purple nutsedge; [3]) was 0 and the “Plant response rating, Purple nutsedge” value (purple nutsedge; Rate 250 g/ha) was 0.
With `Cc1ccccc1-n1c(=O)on(C(=O)N(c2ccccc2)C(C)C)c1=O` [Compound 36] the “Plant response rating, Green foxtail” value (Green foxtail; Rate 500 g/ha) was 100, the “Plant response rating Surinam grass” value (surinam grass; Rate 500 g/ha) was 85 and the “Plant response rating, P. morninglory” value (pitted morningglory; Rate 500 g/ha) was 0. For the same compound, the “Plant response rating, C. purslane” value (common pursiane; [5]) was 10, the “Plant response rating, C. purslane” value (common pursiane; [6]) was 0 and the “Plant response rating, Guineagrass” value (guineagrass; Rate 500 g/ha) was 100. For the same compound, the “Plant response rating, Sandbur” value (sandbur; Rate 500 g/ha) was 100, the “Plant response rating, Goosegrass” value (goosegrass; Rate 500 g/ha) was 100 and the “Plant response rating, Com. groundsel” value (common groundsel; Rate 500 g/ha) was 100. For the same compound, the “Plant response rating, Alexandergrass” value (Alexandergrass; Rate 500 g/ha) was 98, the “Plant response rating Johnsongrass” value (Johnson grass; Rate 500 g/ha) was 0 and the “Plant response rating, Itchgrass” value (itchgrass; Rate 500 g/ha) was 80. For the same compound, the “Plant response rating, Bermudagrass” value (bermuda-grass; Rate 500 g/ha) was 100, the “Plant response rating, Tall Mallow” value (tall mallow; Rate 500 g/ha) was 0 and the “Plant response rating, Dallisgrass” value (dallisgrass; Rate 500 g/ha) was 100. The “Plant response rating, Spanishneedles” value (Spanishneedles; Rate 500 g/ha) was 10 and the “Plant response rating, Purple nutsedge” value (purple nutsedge; Rate 500 g/ha) was 0.
`CC(C)N(C(=O)n1oc(=O)n(Cc2ccccc2)c1=O)c1ccccc1` [Compound 94] was tested, and the “Green foxtail plant response rating” value (Green foxtail; [3]) was 90, the “Plant response rating, Green foxtail” value (Green foxtail; [3]) was 90 and the “Plant response rating, Green foxtail” value (Green foxtail; Rate 500 g/ha) was 100. For the same compound, the “Surinam grass plant response rating” value (surinam grass; [3]) was 80, the “Plant response rating Surinam grass” value (surinam grass; Rate 500 g/ha) was 90 and the “Plant response rating, P. morninglory” value (pitted morningglory; [3]) was 0. For the same compound, the “Plant response rating, P. morninglory” value (pitted morningglory; Rate 500 g/ha) was 0, the “Plant response rating, C. purslane” value (common pursiane; [4]) was 0 and the “Plant response rating, C. purslane” value (common pursiane; [5]) was 10. For the same compound, the “Plant response rating, C. purslane” value (common pursiane; [6]) was 0, the “Plant response rating, Guineagrass” value (guineagrass; [3]) was 0 and the “Plant response rating, Guineagrass” value (guineagrass; Rate 500 g/ha) was 100. The “Sandbur plant response rating” value (sandbur; [3]) was 20, the “Plant response rating, Sandbur” value (sandbur; Rate 500 g/ha) was 100 and the “Plant response rating, Goosegrass” value (goosegrass; [3]) was 85. The “Plant response rating, Goosegrass” value (goosegrass; Rate 500 g/ha) was 100, the “Plant response rating, Com. groundsel” value (common groundsel; [3]) was 75 and the “Plant response rating, Com. groundsel” value (common groundsel; Rate 500 g/ha) was 100. The “Plant response rating, Alexandergrass” value (Alexandergrass; [3]) was 50, the “Plant response rating, Alexandergrass” value (Alexandergrass; Rate 500 g/ha) was 80 and the “Plant response rating Johnsongrass” value (Johnson grass; [3]) was 0. The “Plant response rating Johnsongrass” value (Johnson grass; Rate 500 g/ha) was 20, the “Plant response rating, Itchgrass” value (itchgrass; [3]) was 0 and the “Plant response rating, Itchgrass” value (itchgrass; Rate 500 g/ha) was 40. The “Plant response rating, Bermudagrass” value (bermuda-grass; [3]) was 90, the “Plant response rating, Bermudagrass” value (bermuda-grass; Rate 500 g/ha) was 100 and the “Tall Mallow plant response rating” value (tall mallow; [3]) was 0. For the same compound, the “Plant response rating, Tall Mallow” value (tall mallow; Rate 500 g/ha) was 20, the “Plant response rating, Dallisgrass” value (dallisgrass; [3]) was 98 and the “Plant response rating, Dallisgrass” value (dallisgrass; Rate 500 g/ha) was 100. For the same compound, the “Spanishneedles plant response rating” value (Spanishneedles; [3]) was 0, the “Plant response rating, Spanishneedles” value (Spanishneedles; Rate 500 g/ha) was 0 and the “Plant response rating Common ragweed” value (common ragweed; Rate 140 g/ha) was 0. The “Plant response rating Common ragweed” value (common ragweed; Rate 280 g/ha) was 0, the “Plant response rating Common ragweed” value (common ragweed; Rate 560 g/ha) was 5 and the “Plant response rating Common ragweed” value (common ragweed; Rate 1120 g/ha) was 5. The “Purple nutsedge plant response rating” value (purple nutsedge; [3]) was 50 and the “Plant response rating, Purple nutsedge” value (purple nutsedge; Rate 500 g/ha) was 50.

— patent US6737383B1, “Herbicidal oxadiazolidines” (priority 1999, dated 2004)
